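Dose response: 5 concentrations. Exposure: 48 h. Format: 96-well plates. Endpoint: linear interpolation; highest concentration if not reached. GI50 marks 50% less growth.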 Calls of active or inactive are those of the source. No stated cut-off is given here; in the data, active = GI50 up to about 1.1 µM and inactive = higher. *1 amine or outer side, *2 acyl side, *3 side chain or, on linkers, in order; H or OH if unused. Where a SMILES comes first, the peptide text is derived from it. Bridges are numbered along the chain shown (N, C = ends). Roman numbers before positions name the chains, in order. [ ]: non-standard residue; d: D form. Actinocin(9to1) = Cc1c2oc3c(C)ccc(C(=O)[*:1])c3nc-2c(C(=O)[*:2])c(N)c1=O; NMeV = CN[CH](C(=O)O)C(C)C; Sar = CNCC(=O)O

We go through ten compounds from ChEMBL document CHEMBL1201862, “PubChem BioAssay data set” (2004).

Some test systems named below: LOX IMVI; RXF 393; MCF7; SK-MEL-28; CAKI-1; NCI-H522; SNB-19; SR; COLO 205; NCI/ADR-RES; OVCAR-4; MDA-N; SNB-75; K562; DU-145; IGROV-1; U-251; A498; M14.
What all share (assay): NCI anticancer screen, dose series, 48 h

Take `NC(=S)N/N=C1/CCCC2CCCC[C@@H]12` (stereo partly specified): the GI50 was > 100 µM (inactive) in the assay on LOX IMVI; > 100 µM (inactive) with RXF 393; > 100 µM (inactive) in the assay with MCF7; > 100 µM (inactive) in the assay with SK-MEL-28; > 100 µM (inactive) with CAKI-1; 80.4 µM (inactive) in the assay with NCI-H522. Also, the GI50 with SNB-19, in the assay on SR, in the assay on COLO 205, in the assay with NCI/ADR-RES, in the assay with OVCAR-4 and with MDA-N was > 100 µM (inactive) in each case. Besides, the GI50 in the assay with SNB-75, in the assay on K562, in the assay on DU-145, in the assay with IGROV-1, with U-251 and in the assay with A498 was > 100 µM (inactive) throughout. The GI50 with M14 was > 100 µM (inactive).
With `COc1cc(O)c2c(=O)cc(C3(OC(C)=O)C=CC(OC4OC(CO)C(O)C(O)C4O)C=C3)oc2c1` (stereo unspecified), the GI50 with LOX IMVI, in the assay on RXF 393, in the assay with MCF7, in the assay on SK-MEL-28, in the assay with CAKI-1 and in the assay with NCI-H522 was > 100 µM (inactive) each time. Besides, the GI50 with SNB-19, with SR, with COLO 205, in the assay on NCI/ADR-RES, with OVCAR-4 and in the assay on MDA-N was > 100 µM (inactive) in each case. Further, the GI50 in the assay on SNB-75, with K562, in the assay on DU-145, in the assay on IGROV-1, with U-251 and in the assay with A498 was > 100 µM (inactive) throughout. For the same compound, the GI50 with M14 is > 100 µM (inactive).
With `OC1CC(O)c2c(Cl)sc(Cl)c21` (stereo unspecified), the GI50 is 52.6 µM (inactive) with LOX IMVI; < 0.01 µM (active) in the assay with RXF 393; 31.1 µM (inactive) in the assay with MCF7; 29.9 µM (inactive) in the assay with SK-MEL-28; 31.5 µM (inactive) with CAKI-1; 23 µM (inactive) in the assay on NCI-H522. Moreover, the GI50 with SR was > 100 µM (inactive); with COLO 205, 18.2 µM (inactive); with NCI/ADR-RES, 43.6 µM (inactive); with OVCAR-4, 8.79 µM (inactive); in the assay on MDA-N it was > 100 µM (inactive); with SNB-75 it was 7.67 µM (inactive). Besides, the GI50 in the assay with K562 was 62.8 µM (inactive); with DU-145, 43.4 µM (inactive); with IGROV-1 it was > 100 µM (inactive); with U-251 it was 15.5 µM (inactive); in the assay with A498, > 100 µM (inactive); with M14, 35.2 µM (inactive).
Consider `COc1cc2c(cc1OCc1ccccc1)NC(=S)[C@@H]1CCCN1C2=S`, for which the GI50 with LOX IMVI is 55.5 µM (inactive); in the assay on RXF 393, > 100 µM (inactive); in the assay with MCF7 it was 95.5 µM (inactive); in the assay with SK-MEL-28 it was > 100 µM (inactive); with CAKI-1, > 100 µM (inactive); with NCI-H522, 71.6 µM (inactive). For the same compound, the GI50 in the assay on SNB-19 was > 100 µM (inactive); with SR, 48.5 µM (inactive); in the assay with COLO 205, > 100 µM (inactive); with NCI/ADR-RES, > 100 µM (inactive); in the assay with OVCAR-4 it was 4.09 µM (inactive); in the assay on MDA-N, > 100 µM (inactive). In addition, the GI50 in the assay on SNB-75 was 15 µM (inactive); with K562 it was 45.2 µM (inactive); in the assay with DU-145, > 100 µM (inactive); with IGROV-1, 80.7 µM (inactive); in the assay with U-251 it was 49.4 µM (inactive); with A498 it was > 100 µM (inactive). In addition, in the assay on M14, the GI50 was > 100 µM (inactive).
Regarding `CCOC(=O)c1nc2c(nc1C(=O)OCC)C(=O)c1ccccc1C2=O`, the GI50 in the assay with LOX IMVI was 0.353 µM (active); in the assay with RXF 393, 0.649 µM (active); in the assay with MCF7, 0.34 µM (active); in the assay with SK-MEL-28, 1.03 µM (active); in the assay with CAKI-1, 1 µM (active); in the assay with NCI-H522, 0.671 µM (active). The GI50 is 0.446 µM (active) in the assay on SNB-19; 0.263 µM (active) in the assay with SR; 1.82 µM (inactive) in the assay with COLO 205; 1.17 µM (inactive) with NCI/ADR-RES; 0.637 µM (active) in the assay with OVCAR-4; 0.248 µM (active) with MDA-N. For the same compound, the GI50 was 0.479 µM (active) in the assay on SNB-75; 0.348 µM (active) with K562; 0.828 µM (active) in the assay on DU-145; 2.75 µM (inactive) in the assay on IGROV-1; 0.703 µM (active) in the assay on U-251; 1.87 µM (inactive) in the assay on A498. Also, the GI50 in the assay with M14 was 0.585 µM (active).
Regarding `NC1C2C(CC(=O)O)OCC=C3CN4CCC1(C(=O)C(=O)O)C4CC32` (stereo unspecified), the GI50 in the assay with LOX IMVI, in the assay with RXF 393, in the assay on MCF7, with SK-MEL-28, in the assay on CAKI-1 and in the assay on NCI-H522 was > 100 µM (inactive) in each case. Also, the GI50 in the assay on SNB-19, in the assay on SR, in the assay with COLO 205, in the assay with NCI/ADR-RES, with OVCAR-4 and in the assay on MDA-N was > 100 µM (inactive) in each case. The GI50 in the assay with SNB-75, in the assay on K562, in the assay on DU-145, in the assay with IGROV-1, with U-251 and with A498 was > 100 µM (inactive) each time. Further, in the assay with M14, the GI50 was > 100 µM (inactive).
For the compound `NC(=O)NC(=O)c1cccc(NC(=O)CF)c1`, the GI50 in the assay with LOX IMVI, in the assay with RXF 393, with MCF7, in the assay on SK-MEL-28, with CAKI-1 and in the assay with NCI-H522 was > 100 µM (inactive) each time. In addition, the GI50 in the assay with SNB-19, in the assay on SR, with COLO 205, in the assay on NCI/ADR-RES, with OVCAR-4 and with MDA-N was > 100 µM (inactive) each time. Besides, the GI50 in the assay with SNB-75, in the assay on K562, with DU-145, in the assay with IGROV-1, in the assay on U-251 and with A498 was > 100 µM (inactive) in each case. The GI50 in the assay on M14 was 41.4 µM (inactive).
`Nc1ccnc2c1ncn2[C@H]1C[C@H](O)[C@@H](CO)O1`: the GI50 in the assay on LOX IMVI, in the assay on RXF 393, in the assay with MCF7, with SK-MEL-28, in the assay on CAKI-1 and with NCI-H522 was > 100 µM (inactive) each time. Also, the GI50 in the assay on SNB-19, in the assay on SR, with COLO 205, in the assay on NCI/ADR-RES, in the assay with OVCAR-4 and in the assay on MDA-N was > 100 µM (inactive) in each case. For the same compound, the GI50 with SNB-75, with DU-145, in the assay on IGROV-1, in the assay with U-251, in the assay on A498 and in the assay with M14 was > 100 µM (inactive) throughout.
Take `Cc1c2oc3c(C)ccc(C(=O)NC4C(=O)NC(Cc5ccccc5)C(=O)N5CCCC5C(=O)N(C)CC(=O)N(C)C(C(C)C)C(=O)OC4C)c3nc-2c(C(=O)NC2C(=O)NC(Cc3ccccc3)C(=O)N3CCCC3C(=O)N(C)CC(=O)N(C)C(C(C)C)C(=O)OC2C)c(N)c1=O` (stereo unspecified) (I: TFP[Sar][NMeV] / II: TFP[Sar][NMeV]; ester I:1-I:C, II:1-II:C; linker I:N-II:N via Actinocin(9to1); configuration not given here): the GI50 with LOX IMVI is < 0.001 µM (active); in the assay with RXF 393, 0.0135 µM (active); with MCF7 it was < 0.001 µM (active); in the assay with SK-MEL-28, < 0.001 µM (active); in the assay on CAKI-1, 0.00151 µM (active); in the assay on NCI-H522, < 0.001 µM (active). Besides, the GI50 is < 0.001 µM (active) in the assay with SR; < 0.001 µM (active) with COLO 205; 0.439 µM (active) in the assay on NCI/ADR-RES; 0.0171 µM (active) with OVCAR-4; 0.00162 µM (active) in the assay on MDA-N; 0.00577 µM (active) with SNB-75. For the same compound, the GI50 in the assay on K562 is < 0.001 µM (active); with DU-145, < 0.001 µM (active); with IGROV-1, < 0.001 µM (active); with U-251 it was < 0.001 µM (active); in the assay with A498, 0.00204 µM (active); with M14, 0.0105 µM (active).
Consider `CC(C#N)N(CCc1ccccc1)C(=O)c1ccccc1` (stereo unspecified), for which the GI50 in the assay on LOX IMVI, in the assay on RXF 393, in the assay on MCF7, with CAKI-1, in the assay with NCI-H522 and with SNB-19 was > 100 µM (inactive) each time. Further, the GI50 in the assay with SR was > 100 µM (inactive); in the assay on COLO 205, > 100 µM (inactive); in the assay on NCI/ADR-RES it was > 100 µM (inactive); in the assay with OVCAR-4, > 100 µM (inactive); in the assay on MDA-N, > 100 µM (inactive); in the assay with SNB-75, 27.4 µM (inactive). The GI50 in the assay on K562, in the assay with DU-145, in the assay with IGROV-1, in the assay on U-251, in the assay with A498 and with M14 was > 100 µM (inactive) throughout.
